From paper PMC11456916, “A screen for cell envelope stress uncovers an inhibitor of prolipoprotein diacylglyceryl transferase, Lgt, in Escherichiacoli” (iScience, 2024)
Values after ≈ are worked out from the molar mass of the structure shown. Where two headings read alike, the source gives them in different places.

Legend:
[1] = system: E. coli CO244; experiment: MIC assay with or without SPR741, E. coli CO244; type: cell-based; conditions: Escherichia coli
Experimental: (§1) We next sought to determine whether we could achieve growth inhibition of wild-type E. coli using MAC-0452936 and an antibiotic adjuvant. […] To that end, we determined the MIC of MAC-0452936 against wild-type E. coli in the presence and absence of a sub-MIC concentration of SPR741 (Figure S8B). […] We leveraged this combination to characterize the spectrum of activity of MAC-0452936 against a panel of Gram-negative pathogens (Table 2). In the presence of 8 μg/mL SPR741, we observed MAC-0452936 activity against the clinical E. coli isolates C0244 and CFT073 at 2 μg/mL as well as against Salmonella Typhimurium SL1344 at 4 μg/mL.
(§2) For MIC assays, cultures of bacteria were grown in LB broth. Overnight cultures were diluted (1:100) into fresh LB media and grown to the mid-log phase of growth (OD600 ∼0.5). Subcultures were then normalized to an OD600 of 0.1, and diluted (1:5000) into assay media. Assay plates were then incubated for 18 h at 37°C, then OD600 was measured using a Biotek Neo plate reader.

[2] = system: E. coli ΔtolC-pore harboring the lgt expression plasmid pCHAP9231; experiment: Ectopic lgt expression MIC (high-copy suppression, pCHAP9231); type: cell-based; conditions: pCHAP9231, 0.4% arabinose, LB
[3] = system: K. pneumoniae MKP103; experiment: MIC assay with or without SPR741, K. pneumoniae; type: cell-based, Klebsiella pneumoniae; conditions: for MIC: Klebsiella pneumoniae
Experimental: as §1, §2

[4] = system: E. coli ΔtolC; experiment: MIC assay, E. coli ΔtolC; type: cell-based; conditions: growth inhibition, in words
Experimental: as §2

[5] = system: E. coli ΔtolC-pore harboring pPromrcsA-GFP-mobile; experiment: Secondary screen of bioactive small molecules for rcsA bioreporter induction (agar diffusion); type: cell-based; conditions: 100 nL of 10 mM stock spotted on MOPS minimal agar, visual analysis
Excerpt: To identify small molecules that act on the Gram-negative cell envelope, a set of 797 bioactive compounds that were previously identified to be antibacterial against efflux-deficient hyper-permeable E. coli (E. coli ΔtolC-pore) was screened to determine those that can induce the rcsA bioreporter on MOPS minimal medium. E. coli ΔtolC-pore is deficient in TolC-mediated drug efflux and expresses an outer-membrane pore encoded by fhuA,[46]^,[47] thereby allowing the capture of additional antibacterial chemical scaffolds that would normally be subject to efflux or are unable to traverse the E. coli outer membrane. As the compounds in the bioactive compound collection were all antibacterial at varying inhibitory concentrations, we conducted this secondary screen using a modified solid agar diffusion assay. This enabled testing of these antibacterial small molecules at a range of concentrations, which is often required to assess bioreporter induction. To that end, 100 nL aliquots of compounds from screening library plates were deposited onto discrete positions on MOPS agar impregnated with E. coli ΔtolC-pore harboring the reporter (Figure 3A). Compounds that induced reporter expression were determined through visual analysis of the screening plates following overnight growth by looking for signature green “halos” proximal to the zones of inhibition (Figure S4). […]

[6] = system: E. coli CFT073; experiment: MIC assay with or without SPR741, E. coli CFT073; type: cell-based; conditions: Escherichia coli
Experimental: as §1, §2

[7] = system: E. coli ΔtolC-pore; experiment: Selection of spontaneous resistance mutants; type: cell-based; conditions: E. coli ΔtolC-pore plated on LB agar with 4×, 8× and 16× MIC
Excerpt: The point mutations in Lgt were the only mutations identified in all five isolates (the Illumina sequencing and BreSeq alignment files have been made available in an online data repository, https://zenodo.org/records/11068394). Lgt catalyzes the essential transfer of diacylglycerol from phosphatidyl-glycerol (PG) to the terminal cysteine of pre-prolipoproteins[48] and was also identified as a possible target in our CRISPRi screen for rcsA bioreporter induction (Figures 2E and S3). When mapped to a recently solved crystal structure of E. coli Lgt,[49] the three distinct variants identified in our resistant clones (A37T, V109A, and G138A) were found on three proximal α-helices in the substrate binding pocket of the enzyme (Figure 4B).
A culture of E. coli ΔtolC-pore was grown overnight in LB broth at 37°C with shaking, then, ∼6 × 10^8 CFU in 100 μL of LB broth was plated on LB agar plates containing 4, 8, or 16 μg/mL of MAC-0452936. Plates were then incubated at 37°C, and examined every 24 h for the emergence of resistant colonies. Colonies began to emerge after 48 h of incubation and were purified by restreaking on LB agar and LB agar containing the same concentrations of MAC-0452936 from which the colonies originally appeared. […] DNA samples were sequenced on the Illumina MiSeq platform (SeqCenter LLC) and reads were aligned to the E. coli BW25113 reference genome using Breseq[77] […]

[8] = system: P. aeruginosa PA01; experiment: MIC assay with or without SPR741, P. aeruginosa; type: cell-based, Pseudomonas aeruginosa; conditions: for MIC: Pseudomonas aeruginosa
Experimental: as §1, §2

[9] = system: A. baumannii ATCC17978; experiment: MIC assay with or without SPR741, A. baumannii; type: cell-based, Acinetobacter baumannii; conditions: for MIC: Acinetobacter baumannii
Experimental: as §1, §2

[10] = system: E. coli BW25113; experiment: MIC assay, wild-type E. coli with or without SPR741; type: cell-based
Experimental: as §1, §2

[11] = system: E. coli ΔtolC-pore; experiment: MIC assay, E. coli ΔtolC-pore; type: cell-based
Experimental: as §2

`COc1ccc(C(=O)O/N=C(\c2cccs2)C(C)(C)C)cc1` [MAC-0452936, (Z)-2-Pivaloylthiophene O-(4-methoxybenzoyl) oxime] was tested. Which MIC ([1]; CO244, read-out: MIC, E. coli CO244 + 8 μg/mL SPR741) did it give?
The MIC was 2 µg/mL.

What about the MIC ([1]; CO244, read-out: MIC, E. coli CO244 + 0 μg/mL SPR741) of the same molecule?
The MIC was greater than 64 µg/mL.

What about the “suppression of activity by induction of lgt expression with arabinose” value [2] of the same molecule?
Its value is “about 8 fold”.

What about the “MIC, K. pneumoniae MKP103 + 8 μg/mL SPR741” value ([3]; 8 μg/mL SPR741) of the same molecule?
The value was “did not observe MAC-0452936 activity”.

And the MIC ([3]; MKP103, read-out: MIC, K. pneumoniae MKP103 + 0 μg/mL SPR741)?
The MIC was greater than 64 µg/mL.

And the MIC ([3]; MKP103, read-out: MIC, K. pneumoniae MKP103 + 8 μg/mL SPR741)?
Its MIC is greater than 64 µg/mL.

What about the “activity against E. coli ΔtolC” value [4] of the same molecule?
The value was “active”.

And the “rcsA bioreporter (GFP) induction in secondary screen” value [5]?
Its value is “induced pPromrcsA-GFP”.

What about the MIC ([6]; CFT073, read-out: MIC, E. coli CFT073 + 8 μg/mL SPR741) of the same molecule?
The MIC was 2 µg/mL.

What about the MIC ([6]; CFT073, read-out: MIC, E. coli CFT073 + 0 μg/mL SPR741) of the same molecule?
The MIC was greater than 64 µg/mL.

What about the frequency of resistance [7] of the same molecule?
Its frequency of resistance is 2 x 10^−8.

And the resistant isolates identified [7]?
The resistant isolates identified was “five independent resistant isolates were generated”.

What about the “MIC, P. aeruginosa PA01 + 8 μg/mL SPR741” value ([8]; 8 μg/mL SPR741) of the same molecule?
The value was “did not observe MAC-0452936 activity”.

What about the MIC ([8]; PA01, read-out: MIC, P. aeruginosa PA01 + 8 μg/mL SPR741) of the same molecule?
Its MIC is greater than 64 µg/mL.

What about the MIC ([8]; PA01, read-out: MIC, P. aeruginosa PA01 + 0 μg/mL SPR741) of the same molecule?
Its MIC is greater than 64 µg/mL.

What about the “MIC, A. baumannii ATCC17978 + 8 μg/mL SPR741” value ([9]; 8 μg/mL SPR741) of the same molecule?
The value was “did not observe MAC-0452936 activity”.

And the MIC ([9]; ATCC17978, read-out: MIC, A. baumannii ATCC17978 + 8 μg/mL SPR741)?
The MIC was greater than 64 µg/mL.

What about the MIC ([9]; ATCC17978, read-out: MIC, A. baumannii ATCC17978 + 0 μg/mL SPR741) of the same molecule?
The MIC was greater than 64 µg/mL.

What about the MIC ([10]; Escherichia coli, BW25113, read-out: MIC, E. coli BW25113 + 0 μg/mL SPR741) of the same molecule?
The MIC was greater than 64 µg/mL.

And the “activity against wild-type (WT) E. coli” value ([10]; growth inhibition, no SPR741, in words)?
Its value is “inactive”.

And the “MIC, E. coli ΔtolC-pore” value ([11]; LB, 18 h)?
Its value is 0.5 µg/mL (≈ 1.58 µM).

What about the “activity against E. coli ΔtolC-pore” value ([11]; growth inhibition, in words) of the same molecule?
The value was “active”.
